Data as given in ChEMBL document CHEMBL1201862, “PubChem BioAssay data set” (2004).
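How tested: cells in 96-well plates exposed to compound for 48 hours at five concentrations. GI50 is the concentration that inhibits growth by half.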 Calls of active or inactive are those of the source. No stated cut-off is given here; in the data, active = GI50 up to about 1.1 µM and inactive = higher.

Legend:
Experiment in all cases: NCI anticancer screen, dose series, 48 h
CAKI-1 = test system: CAKI-1
SK-MEL-28 = test system: SK-MEL-28
EKVX = test system: EKVX
HCT-116 = test system: HCT-116
KM12 = test system: KM12
OVCAR-8 = test system: OVCAR-8
SNB-75 = test system: SNB-75
SR = test system: SR
RPMI-8226 = test system: RPMI-8226
SF-539 = test system: SF-539
MOLT-4 = test system: MOLT-4
HOP-62 = test system: HOP-62
SNB-19 = test system: SNB-19
LOX IMVI = test system: LOX IMVI
NCI-H460 = test system: NCI-H460
HCT-15 = test system: HCT-15
RXF 393 = test system: RXF 393
TK-10 = test system: TK-10
A498 = test system: A498
MDA-MB-435 = test system: MDA-MB-435

Structure (SMILES)	GI50 (CAKI-1)	GI50 (SK-MEL-28)	GI50 (EKVX)	GI50 (HCT-116)	GI50 (KM12)	GI50 (OVCAR-8)	GI50 (SNB-75)	GI50 (SR)	GI50 (RPMI-8226)	GI50 (SF-539)	GI50 (MOLT-4)	GI50 (HOP-62)	GI50 (SNB-19)	GI50 (LOX IMVI)	GI50 (NCI-H460)	GI50 (HCT-15)	GI50 (RXF 393)	GI50 (TK-10)	GI50 (A498)	GI50 (MDA-MB-435)
N=C1NC2(O)C(=O)c3ccccc3C2(O)N1 (configuration not stated)	> 100 µM (inactive)	> 100 µM (inactive)	> 100 µM (inactive)	> 100 µM (inactive)	> 100 µM (inactive)	> 100 µM (inactive)	> 100 µM (inactive)	> 100 µM (inactive)	> 100 µM (inactive)	> 100 µM (inactive)	> 100 µM (inactive)	> 100 µM (inactive)	> 100 µM (inactive)	> 100 µM (inactive)	> 100 µM (inactive)	> 100 µM	> 100 µM (inactive)	> 100 µM (inactive)	> 100 µM (inactive)	
COc1cc(C(=O)C/C(CCC(=O)Nc2ccc(Cl)cc2Cl)=N/Nc2nnc(C)n2N)ccc1O	45.9 µM (inactive)	> 100 µM (inactive)	67.1 µM (inactive)	> 100 µM (inactive)	> 100 µM (inactive)	> 100 µM (inactive)	> 100 µM (inactive)	> 100 µM (inactive)	> 100 µM (inactive)	> 100 µM (inactive)		> 100 µM (inactive)	> 100 µM (inactive)	> 100 µM (inactive)	> 100 µM (inactive)	> 100 µM	> 100 µM (inactive)	> 100 µM (inactive)	92.7 µM (inactive)	
Nn1c(S)nnc1N/N=C1/C(=O)Nc2ccccc21	52.6 µM (inactive)	33.7 µM (inactive)	> 100 µM (inactive)	53.1 µM (inactive)	92.3 µM (inactive)	49.5 µM (inactive)		39.6 µM (inactive)	63.2 µM (inactive)	94 µM (inactive)	30.7 µM (inactive)	64.9 µM (inactive)	55.2 µM (inactive)	35.4 µM (inactive)	54.7 µM (inactive)	57.7 µM	27.7 µM (inactive)	> 100 µM (inactive)	92.3 µM (inactive)	
COc1ccc(C2=NN(c3ccccc3)C[N+](c3ccc(C)cc3)=N2)cc1		58.9 µM (inactive)	44.3 µM (inactive)	35.1 µM (inactive)	> 10 µM (inactive)	78.2 µM (inactive)		34 µM (inactive)	26.9 µM (inactive)		19.8 µM (inactive)	> 100 µM (inactive)	34.1 µM (inactive)	32 µM (inactive)	65.5 µM (inactive)	51.2 µM	19.5 µM (inactive)	> 100 µM (inactive)	63 µM (inactive)	
CSc1nc(Cl)c2c(n1)Sc1nc3ccccc3n1N=C2	13.4 µM (inactive)	40.8 µM (inactive)		25.1 µM (inactive)	37.8 µM (inactive)	19.1 µM (inactive)	25.9 µM (inactive)		21.6 µM (inactive)		21.7 µM (inactive)	41.7 µM (inactive)	> 100 µM (inactive)	18.2 µM (inactive)	56 µM (inactive)	17.6 µM	22.6 µM (inactive)	33.7 µM (inactive)	> 100 µM (inactive)	29.7 µM (inactive)
CC1=Nc2ccccc2S(=O)(=O)N1	> 100 µM (inactive)	> 100 µM (inactive)	> 100 µM (inactive)	> 100 µM (inactive)	> 100 µM (inactive)	> 100 µM (inactive)	> 100 µM (inactive)	> 100 µM (inactive)		> 100 µM (inactive)	> 100 µM (inactive)	> 100 µM (inactive)	> 100 µM (inactive)	> 100 µM (inactive)	> 100 µM (inactive)	> 100 µM	> 100 µM (inactive)	> 100 µM (inactive)	> 100 µM (inactive)	
CN(C)P(=O)(/C(N)=N/Nc1ccc([N+](=O)[O-])cc1)N(C)C	> 100 µM (inactive)	> 100 µM (inactive)	> 100 µM (inactive)	> 100 µM (inactive)	> 100 µM (inactive)	> 100 µM (inactive)	> 100 µM (inactive)	> 100 µM (inactive)	> 100 µM (inactive)	> 100 µM (inactive)	> 100 µM (inactive)	> 100 µM (inactive)	> 100 µM (inactive)	> 100 µM (inactive)	> 100 µM (inactive)	> 100 µM		> 100 µM (inactive)	0.558 µM (active)	
CNC(SC)=C1C(=O)OC(C)(C)OC1=O	> 100 µM (inactive)	> 100 µM (inactive)	> 100 µM (inactive)	58.2 µM (inactive)	> 100 µM (inactive)	> 100 µM (inactive)	> 100 µM (inactive)	> 100 µM (inactive)	> 100 µM (inactive)		> 100 µM (inactive)	> 100 µM (inactive)	> 100 µM (inactive)	73.3 µM (inactive)	50 µM (inactive)	19.8 µM	68.9 µM (inactive)	> 100 µM (inactive)	> 100 µM (inactive)	
